Read-outs that look alike come from different tables or passages of the source. {Fluorescein} = fluorescein label
Key:
[1] = target: T1, HuR protein interaction with the ARE site of Msi1 mRNA (HuR-Msi1^ARE) (Homo sapiens, UniProt Q15717); test: Fluorescence polarization (FP) assay, inhibition of HuR-Msi1 ARE interaction; format: binding; details: full-length human HuR, read-out: Ki via FP assay
T1 construct: full-length human HuR protein was produced by the KU COBRE-PSF Protein Purification Group; made in house
T1 sequence (Q15717 whole entry): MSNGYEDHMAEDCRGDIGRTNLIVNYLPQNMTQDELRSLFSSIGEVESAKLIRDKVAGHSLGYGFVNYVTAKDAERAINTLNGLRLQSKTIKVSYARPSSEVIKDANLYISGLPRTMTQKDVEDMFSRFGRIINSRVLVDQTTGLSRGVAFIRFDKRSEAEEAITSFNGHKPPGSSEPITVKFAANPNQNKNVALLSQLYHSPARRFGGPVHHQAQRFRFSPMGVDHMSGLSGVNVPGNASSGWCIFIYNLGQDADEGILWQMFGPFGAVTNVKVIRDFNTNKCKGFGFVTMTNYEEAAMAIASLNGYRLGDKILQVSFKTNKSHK
Excerpt: (§1) A fluorescence polarization (FP)-based binding assay was utilized to assess the inhibition of HuR protein interaction with the ARE site of Msi1 mRNA (“HuR-Msi1^ARE”) by compounds of interest. Briefly, full-length human HuR protein was produced by the KU COBRE-PSF Protein Purification Group and Bcl2, Msi1 and XIAP mRNA sequences (16 nt) were designed based on literature precedent^23,24,31,32. Fluorescein labeled RNAs were purchased from Dharmacon with the following sequences: Msi1 RNA: 5′-GCUUUUAUUUAUUUUG-3′-fluorescein; Bcl-2 RNA: 5′-AAAAGAUUUAUUUAUU-3′-fluorescein; XIAP RNA: 5′-UAGUUAUUUUUA UGUC-3′-fluorescein, and a 16-nt degenerative RNA with 3′-fluorescein label was used as a negative control.

MDA-MB-231 = test: Cytotoxicity assay (WST-8); format: cell-based; details: Homo sapiens, read-out: Cytotoxicity (IC50, μM) MDA-MB-231
Protocol: The cytotoxicity of the tested compounds in several cancer cell lines (HCT116 β/w, MIAPaCa-2, and MDA-MB-231) was determined by a cytotoxicity assay, where the results are provided in Table 1. Cells were seeded in 96-well culture plates (5,000 cells/well) and treated with titrated compounds in triplicate. After 96 h incubation, cell growth medium was removed and proliferation reagent WST-8 (Sigma) was added to each well and incubated at 37° C. for 1-3 h. Absorbance was then measured with a plate reader at 450 nm with correction at 650 nm. The results were expressed as the percentage of absorbance of treated wells versus that of vehicle control. IC50, the drug concentration causing 50% growth inhibition, was calculated via sigmoid curve fitting using GraphPad Prism 5.0. […]

HCT116 β/w = test: Cytotoxicity assay (WST-8); format: cell-based; details: Homo sapiens, HCT-116, 96 h incubation
Protocol: (§2) Cells were seeded in 96-well culture plates (5,000 cells/well) and treated with titrated compounds in triplicate. After 96 h incubation, cell growth medium was removed and proliferation reagent WST-8 (Sigma) was added to each well and incubated at 37° C. for 1-3 h. Absorbance was then measured with a plate reader at 450 nm with correction at 650 nm. The results were expressed as the percentage of absorbance of treated wells versus that of vehicle control.

MIAPaCa-2 = test: Cytotoxicity assay (WST-8); format: cell-based; details: Homo sapiens, MIA PaCa-2, 96 h incubation
Protocol: as §2

[2] = system: doxorubicin-resistant MDA-MB-231 cell line (231-DR); test: Cytotoxicity assay, doxorubicin-resistant cells; format: cell-based; details: 231-DR vs MDA-MB-231
Protocol: (§3) To further mimic clinical conditions and assess overcoming acquired chemo-resistance via compounds of the present technology, docetaxel-resistant and doxorubicin-resistant MDA-MB-231 cells were generated by continuous exposure of cells to increasing concentrations of docetaxel (TXT) or doxorubicin (DXR). Cytotoxicity assays were then performed to assess the chemo-resistance of the produced cell lines as well as assess the sensitivity of such chemo-resistant cell lines to compounds of the present technology.
(§4) Cytotoxicity assays were then performed utilizing concentrations of KH-3 that were below the lethal threshold for the compound (a “sub-lethal concentration”) in combination with docetaxel or doxorubicin to determine whether compounds of the present technology may sensitize cancer cell lines (including chemo-resistance cancer cell lines) to chemotherapy. FIGS. 11A-11B illustrate that sub-lethal concentrations of KH-3 sensitizes both MDA-MB-231 cells and docetaxel-resistant 231-TR cells to docetaxel treatment (FIGS. 11A-11B), and FIGS. 11C-D illustrate that sub-lethal concentrations of KH-3 sensitizes both MDA-MB-231 cells and doxorubicin-resistant 231-DR cells to doxorubicin treatment (FIGS. 11C-11D).

[3] = system: HuR target mRNAs (Bcl-2, XIAP, Msi1, HuR) in HCT-116 β/w cells; test: mRNA stability by qRT-PCR after co-treatment with Actinomycin D; format: cell-based; parameters: dose or concentration left out as unconfirmed
Protocol: HuR target mRNA levels were measured by qRT-PCR.
(§5) As HuR promotes stability of its target mRNAs, it is expected that HuR-inhibitors will block HuR function and shorten the half-life (t1/2) of target mRNAs. mRNA stability was determined via quantitative real-time PCR (qRT-PCR) after co-treatment of compounds of the present technology and Actinomycin D (a transcription inhibitor). […] Because HuR also increases the translation of target mRNAs, the effect of compounds of the present technology was tested on protein levels of HuR targets by Western blot analysis.

[4] = system: PARP cleavage, LC3 conversion, and RIP3 activation; test: Western blot of cell death mechanisms; format: cell-based
Excerpt: FIGS. 8A-8C provide the results of Western blot analysis illustrating that KH-3 decreases the protein levels of HuR targets in HCT-116 β/w cells (FIG. 8A) and MDA-MB-231 cells (FIG. 8B) and is involved in cell death mechanisms by inducing PARP cleavage, LC3 conversion, and RIP3 activation (FIG. 8C), according to the working examples.
as §5

[5] = system: protein levels of HuR targets in MDA-MB-231 cells; test: Western blot of HuR targets; format: cell-based
Protocol: as §5

[6] = system: protein levels of HuR targets in HCT-116 β/w cells; test: Western blot of HuR targets; format: cell-based
Protocol: as §5

[7] = target: T2, full-length human HuR protein (Homo sapiens, UniProt Q15717); test: FP-based binding of fluorescein-labeled RNAs to HuR; details: 16 nt RNA oligo, FITC-RNA 2 nM; read-out: Kd of HuR binding with fluorescein-labeled target RNA
T2 construct: full-length human HuR protein was produced by the KU COBRE-PSF Protein Purification Group; made in house
T2 sequence (Q15717 whole entry): as above
Protocol: FIG. 3 provides the results of a fluorescence polarization (FP)-based binding assay, illustrating that full length HuR binds to FITC-Bcl-2, Msi1, and XIAP RNA but not to scrambled oligo-FITC, according to the working examples. The concentration of FITC-RNA used in the assay is 2 nM.
as §1

[8] = system: Musashi 2 (Msi2) mRNA in PC3 cells; test: mRNA level of HuR target after chemotherapy; format: cell-based
Excerpt: FIGS. 1A-1F provide the results of studies illustrating RNA-binding protein Hu antigen R (HuR) is involved in chemo/radiation-induced tumor response, according to the working examples. […] HuR knock-down by siRNA sensitized cancer cells to X-ray radiation, with an enhancement ratio (ER) of 1.5 versus the negative control (NC) siRNA (FIG. 1F).

[9] = system: docetaxel-resistant MDA-MB-231 cell line (231-TR); test: Cytotoxicity assay, docetaxel-resistant cells; format: cell-based; details: 231-TR vs MDA-MB-231
Protocol: as §3, §4

[10] = MDA-MB-231, 96 h incubation, WST-8

Compound	Ki [1]	IC50 (MDA-MB-231; [10])	IC50 (HCT116 β/w)	IC50 (MIAPaCa-2)	further results
O=C(O)/C=C/c1cc2cc(NS(=O)(=O)c3ccccc3)ccc2s1 [KH-1A, (E)-3-(5-(phenylsulfonamido)benzo[b]thiophen-2-yl)acrylic acid]	5.82 µM	> 100 µM	> 100 µM	> 100 µM	–
COc1cccc2c1C(=O)c1c(O)c3c(c(O)c1C2=O)C[C@@](O)(C(=O)CO)C[C@@H]3O[C@H]1C[C@H](N)[C@H](O)[C@H](C)O1 [doxorubicin]	–	–	–	–	IC50 in 231-DR compared to parental cell line [2]: about 10 fold
O=C(/C=C/c1cc2cc(NS(=O)(=O)c3ccccc3)ccc2s1)NO [KH-1]	9.2 µM	–	0.86 µM	1.21 µM	IC50 (MDA-MB-231; MDA-MB-231, 96 h): 0.98 µM
Cc1ccc(S(=O)(=O)Nc2ccc3sc(/C=C/C(=O)NO)cc3c2)cc1 [KH-2]	5.55 µM	–	1.42 µM	2.33 µM	IC50 (MDA-MB-231; MDA-MB-231, 96 h): 1.46 µM
CC(C)(C)c1ccc(S(=O)(=O)Nc2ccc3sc(/C=C/C(=O)O)cc3c2)cc1 [KH-3A, (E)-3-(5-(4-(tert-butyl)phenylsulfonamido)benzo[b]thiophen-2-yl)acrylic acid]	1.38 µM	> 100 µM	> 100 µM	> 100 µM	–
Cc1cc(C)c(S(=O)(=O)Nc2ccc3sc(/C=C/C(=O)NO)cc3c2)c(C)c1 [KH-4]	1.41 µM	–	–	–	IC50 (MDA-MB-231; MDA-MB-231, 96 h): 1.04 µM
CCOC(=O)/C=C/c1cc2cc(NS(=O)(=O)c3ccc(C(C)(C)C)cc3)ccc2s1 [KH-3B, (E)-ethyl 3-(5-(4-(tert-butyl)phenylsulfonamido)benzo[b]thiophen-2-yl)acrylate]	> 20 µM	45.6 µM	68.2 µM	45.5 µM	stability of HuR target mRNAs (Bcl-2, XIAP, Msi1, HuR mRNA) [3]: not exhibited; cell death mechanisms (PARP cleavage, LC3 conversion, RIP3 activation) [4]: not exhibited; protein levels of HuR targets [5]: not exhibited; protein levels of HuR targets [6]: not exhibited
Cc1cc(C)c(S(=O)(=O)Nc2ccc3sc(/C=C/C(=O)O)cc3c2)c(C)c1 [KH-4A, (E)-3-(5-(2,4,6-trimethylphenylsulfonamido)benzo[b]thiophen-2-yl)acrylic acid]	2.92 µM	> 100 µM	> 100 µM	> 100 µM	–
CCOC(=O)/C=C/c1cc2cc(NS(=O)(=O)c3c(C)cc(C)cc3C)ccc2s1 [KH-4B, (E)-ethyl 3-(5-(2,4,6-trimethylphenylsulfonamido)benzo[b]thiophen-2-yl)acrylate]	> 20 µM	> 100 µM	91.4 µM	30.4 µM	–
Bcl-2 RNA: Fluorescein labeled 16 nt RNA 5′-AAAAGAUUUAUUUAUU-3′-fluorescein (RNA, 3' {Fluorescein}, backbone not given here)	–	–	–	–	Kd [7]: 0.0063 µM
CCOC(=O)/C=C/c1cc2cc(NS(=O)(=O)c3ccccc3)ccc2s1 [KH-1B, (E)-ethyl 3-(5-(phenylsulfonamido)benzo[b]thiophen-2-yl)acrylate]	> 20 µM	41.8 µM	35.6 µM	37.6 µM	–
CC(=O)O[C@@]12CO[C@@H]1C[C@H](O)[C@@]1(C)C(=O)[C@H](O)C3=C(C)[C@@H](OC(=O)[C@H](O)[C@@H](NC(=O)OC(C)(C)C)c4ccccc4)C[C@@](O)([C@@H](OC(=O)c4ccccc4)[C@H]21)C3(C)C [docetaxel]	–	–	–	–	mRNA levels of HuR target Musashi 2 (Msi2) [8]: increased the mRNA levels; IC50 in 231-TR compared to parental cell line [9]: more than 8 fold
Cc1ccc(S(=O)(=O)Nc2ccc3sc(/C=C/C(=O)O)cc3c2)cc1 [KH-2A, (E)-3-(5-(4-methylphenylsulfonamido)benzo[b]thiophen-2-yl)acrylic acid]	2.92 µM	> 100 µM	> 100 µM	> 100 µM	–
XIAP RNA: Fluorescein labeled 16 nt RNA 5′-UAGUUAUUUUUA UGUC-3′-fluorescein (UAGUUAUUUUUAUGUC; RNA, 3' {Fluorescein}, backbone not given here)	–	–	–	–	Kd [7]: 0.0035 µM
CCOC(=O)/C=C/c1cc2cc(NS(=O)(=O)c3ccc(C)cc3)ccc2s1 [KH-2B, (E)-ethyl 3-(5-(4-methylphenylsulfonamido)benzo[b]thiophen-2-yl)acrylate]	> 20 µM	43 µM	40.1 µM	39.5 µM	–
Msi1 RNA: Fluorescein labeled 16 nt RNA 5′-GCUUUUAUUUAUUUUG-3′-fluorescein (RNA, 3' {Fluorescein}, backbone not given here)	–	–	–	–	Kd [7]: 0.002 µM

From patent publication US20230131501A1, “THERAPEUTIC USES OF INHIBITORS OF THE RNA-BINDING PROTEIN HuR” (University of Kansas, priority 2020, published 2023)
